Data as given in US12173020B2, “New-type oxazolidinone compounds and preparation method therefor” (priority 2019, dated 2024).

Key:
[1] = tested on: vancomycin-resistant Enterococcus (VRE); experiment: agar dilution method, inhibitory effect on VRE; type: cell-based; settings: for MIC50: Enterococcus, read-out: Minimum inhibitory concentration (MIC50, μg/ml) VRE
Description: (§1) In order to determine the antibacterial activity of these new oxazolidinone-based compounds, an agar dilution method was used to test the inhibitory effect on methicillin-resistant Staphylococcus aureus (MRSA) and vancomycin-resistant Enterococcus (VRE). The bacteria inhibition effect was expressed as minimum inhibitory concentration (MIC50, μg/ml) The test results are shown in the following table.

[2] = tested on: methicillin-resistant Staphylococcus aureus (MRSA); experiment: agar dilution method, inhibitory effect on MRSA; type: cell-based; settings: for MIC50: Staphylococcus aureus, read-out: Minimum inhibitory concentration (MIC50, μg/ml) MRSA
Description: as §1

Compound	MIC50 [1] [µg/mL]	MIC50 [2] [µg/mL]	Minimum inhibitory concentration (MIC50, μg/ml) VRE [1] [µg/mL]	Minimum inhibitory concentration (MIC50, μg/ml) MRSA [2] [µg/mL]
CCn1nnc(-c2ccc(-c3ccc(N4C[C@H](C(O)F)OC4=O)cc3F)cn2)n1.O=P(O)(O)O (stereo partly drawn) [compound 101, (R)-3-(3-fluoro-4-(6-(2-ethyl-2H-tetrazol-5-yl)pyridin-3-yl)phenyl)-5-(hydroxyfluoromethyl) oxazolidin-2-one phosphate]	0.4	0.4		
C=Cn1nnc(-c2ccc(-c3ccc(N4C[C@H](CO)OC4=O)cc3F)cn2)n1.O=P(O)(O)O [compound 85, (R)-3-(3-fluoro-4-(6-(2-vinyl-2H-tetrazol-5-yl)pyridin-3-yl)phenyl)-5-(hydroxymethyl) oxazolidin-2-one phosphate]	0.2	0.2		
CC(O)[C@H]1CN(c2ccc(-c3ccc(-c4nnn(C)n4)nc3)c(F)c2)C(=O)O1.O=P(O)(O)O (stereo partly drawn) [compound 87, (R)-3-(3-fluoro-4-(6-(2-methyl-2H-tetrazol-5-yl)pyridin-3-yl)phenyl)-5-(1-hydroxyethyl) oxazolidin-2-one phosphate]	0.3	0.3		
CCn1nnc(-c2ccc(-c3ccc(N4C[C@H](CO)OC4=O)cc3F)cn2)n1.O=P(O)(O)O [compound 79, (R)-3-(3-fluoro-4-(6-(2-ethyl-2H-tetrazol-5-yl)pyridin-3-yl)phenyl)-5-(hydroxymethyl) oxazolidin-2-one phosphate]	1.5	1.8		
Cn1nnc(-c2ccc(-c3ccc(N4C[C@@H](C(O)CF)OC4=O)cc3F)cn2)n1.O=P(O)(O)O (stereo partly drawn) [compound 130, (S)-3-(3-fluoro-4-(6-(2-methyl-2H-tetrazol-5-yl)pyridin-3-yl)phenyl)-5-(1-hydroxy-2-fluoroethyl) oxazolidin-2-one phosphate]	0.2	0.2		
CCn1nnc(-c2ccc(-c3ccc(N4C[C@H](C(O)CF)OC4=O)cc3F)cn2)n1.O=P(O)(O)O (stereo partly drawn) [compound 135, (R)-3-(3-fluoro-4-(6-(2-ethyl-2H-tetrazol-5-yl)pyridin-3-yl)phenyl)-5-(1-hydroxy-2-fluoroethyl) oxazolidin-2-one phosphate]	0.3	0.4		
CCCn1nnc(-c2ccc(-c3ccc(N4C[C@H](C(O)CC)OC4=O)cc3F)cn2)n1.O=P(O)(O)O (stereo partly drawn) [compound 107, (R)-3-(3-fluoro-4-(6-(2-propyl-2H-tetrazol-5-yl)pyridin-3-yl)phenyl)-5-(1-hydroxypropyl) oxazolidin-2-one phosphate]	0.8	0.8		
CCn1nnc(-c2ccc(-c3ccc(N4C[C@@H](C(O)F)OC4=O)cc3F)cn2)n1.O=P(O)(O)O (stereo partly drawn) [compound 102, (S)-3-(3-fluoro-4-(6-(2-ethyl-2H-tetrazol-5-yl)pyridin-3-yl)phenyl)-5-(hydroxyfluoromethyl) oxazolidin-2-one phosphate]	0.2	0.2		
C=Cn1nnc(-c2ccc(-c3ccc(N4C[C@@H](CO)OC4=O)cc3F)cn2)n1.O=P(O)(O)O [compound 86, (S)-3-(3-fluoro-4-(6-(2-vinyl-2H-tetrazol-5-yl)pyridin-3-yl)phenyl)-5-(hydroxymethyl) oxazolidin-2-one phosphate]	0.3	0.3		
O=C1O[C@H](C(O)C2CC2)CN1c1ccc(-c2ccc(-c3nnn(C4CC4)n3)nc2)c(F)c1.O=P(O)(O)O (stereo partly drawn) [compound 150, (S)-3-(3-fluoro-4-(6-(2-cyclopropyl-2H-tetrazol-5-yl)pyridin-3-yl)phenyl)-5-(1-hydroxy-1-cyclopropylmethyl) oxazolidin-2-one phosphate]	0.2	0.2		
CCCn1nnc(-c2ccc(-c3ccc(N4C[C@H](C(O)C(F)(F)F)OC4=O)cc3F)cn2)n1.O=P(O)(O)O (stereo partly drawn) [compound 103, (R)-3-(3-fluoro-4-(6-(2-propyl-2H-tetrazol-5-yl)pyridin-3-yl)phenyl)-5-(1-hydroxy-2-trifluoroethyl) oxazolidin-2-one phosphate]			0.7	0.7
CCCn1nnc(-c2ccc(-c3ccc(N4C[C@@H](C(C)O)OC4=O)cc3F)cn2)n1.O=P(O)(O)O (stereo partly drawn) [compound 106, (S)-3-(3-fluoro-4-(6-(2-propyl-2H-tetrazol-5-yl)pyridin-3-yl)phenyl)-5-(1-hydroxyethyl) oxazolidin-2-one phosphate]	1.2	1		
C=Cn1nnc(-c2ccc(-c3ccc(N4C[C@H](C(O)CC)OC4=O)cc3F)cn2)n1.O=P(O)(O)O (stereo partly drawn) [compound 123, (R)-3-(3-fluoro-4-(6-(2-vinyl-2H-tetrazol-5-yl)pyridin-3-yl)phenyl)-5-(1-hydroxypropyl) oxazolidin-2-one phosphate]	0.3	0.3		
C=Cn1nnc(-c2ccc(-c3ccc(N4C[C@@H](C(OP(=O)(O)O)C(F)(F)F)OC4=O)cc3F)cn2)n1 (stereo partly drawn) [compound 120, (S)-3-(3-fluoro-4-(6-(2-vinyl-2H-tetrazol-5-yl)pyridin-3-yl)phenyl)-5-(1-hydroxy-2-trifluoroethyl) oxazolidin-2-one phosphate]			0.2	0.2
CCC(O)[C@H]1CN(c2ccc(-c3ccc(-c4nnn(C)n4)nc3)c(F)c2)C(=O)O1.O=P(O)(O)O (stereo partly drawn) [compound 89, (R)-3-(3-fluoro-4-(6-(2-methyl-2H-tetrazol-5-yl)pyridin-3-yl)phenyl)-5-(1-hydroxypropyl) oxazolidin-2-one phosphate]	0.4	0.4		
C=Cn1nnc(-c2ccc(-c3ccc(N4C[C@@H](C(O)C(F)F)OC4=O)cc3F)cn2)n1.O=P(O)(O)O (stereo partly drawn) [compound 152, (S)-3-(3-fluoro-4-(6-(2-vinyl-2H-tetrazol-5-yl)pyridin-3-yl)phenyl)-5-(1-hydroxy-2-difluoroethyl) oxazolidin-2-one phosphate]			0.2	0.3
C=Cn1nnc(-c2ccc(-c3ccc(N4C[C@@H](C(O)CC)OC4=O)cc3F)cn2)n1.O=P(O)(O)O (stereo partly drawn) [compound 124, (S)-3-(3-fluoro-4-(6-(2-vinyl-2H-tetrazol-5-yl)pyridin-3-yl)phenyl)-5-(1-hydroxypropyl) oxazolidin-2-one phosphate]	0.2	0.2		
CCn1nnc(-c2ccc(-c3ccc(N4C[C@H](C(O)C(F)(F)F)OC4=O)cc3F)cn2)n1.O=P(O)(O)O (stereo partly drawn) [compound 95, (R)-3-(3-fluoro-4-(6-(2-ethyl-2H-tetrazol-5-yl)pyridin-3-yl)phenyl)-5-(1-hydroxy-2-trifluoroethyl) oxazolidin-2-one phosphate]			0.3	0.3
CCn1nnc(-c2ccc(-c3ccc(N4C[C@@H](CO)OC4=O)cc3F)cn2)n1.O=P(O)(O)O [compound 80, (S)-3-(3-fluoro-4-(6-(2-ethyl-2H-tetrazol-5-yl)pyridin-3-yl)phenyl)-5-(hydroxymethyl) oxazolidin-2-one phosphate]	1.9	1.9		
CCn1nnc(-c2ccc(-c3ccc(N4C[C@H](C(O)C5CC5)OC4=O)cc3F)cn2)n1.O=P(O)(O)O (stereo partly drawn) [compound 137, (R)-3-(3-fluoro-4-(6-(2-ethyl-2H-tetrazol-5-yl)pyridin-3-yl)phenyl)-5-(1-hydroxy-1-cyclopropylmethyl) oxazolidin-2-one phosphate]	1.1	1.5		
